Experimental data published in patent US12479816B2, “20-HETE formation inhibitors” (UNIVERSITY OF PITTSBURGH—OF THE COMMONWEALTH SYSTEM OF …, priority 2019, dated 2025).
Like-named read-outs stand apart in the source and are kept apart here.

Experiments:
[1] = tested on: 20-HETE formation (CYP4) in HLM; assay: Inhibition of 20-HETE formation at 250 or 500 nM in HLM microsomal incubations; type: biochemical, human; details: 500 nM compound; HLM 300 μg/ml, AA 100 μM, 20 min
Summary of the method: (§1)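 Protein 300 μg/ml (microsomes) / 25 pmol/mL (rCYP4F2); AA 100 μM; NADPH 1 mM start; KPi 0.12 M + 5 mM MgCl2; 20 min, 37° C. Read-out: 20-HETE by UPLC-MS/MS (d6 IS), % of vehicle, n=3.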

[2] = tested on: 20-HETE formation (CYP4) in HLM; assay: IC50 determination, 20-HETE formation in HLM; type: biochemical, human; details: HLM 300 μg/ml, AA 100 μM, 12 concentrations
Description: (§2) Microsomal incubations contained HLM, RLM (300 μg/ml), AA (100 μM), NADPH (1 mM) and test compounds at 12 concentrations (0.1 nM-50 μM) in a 1 ml total volume in microsomal incubation buffer (0.12 M potassium phosphate buffer containing 5 mM magnesium chloride). Reaction was started by adding NADPH to the incubates and was carried out at 37° C. in a shaking water bath for 20 min. Reaction was stopped by placing tubes on ice, followed by adding 12.5 μl 20-HETE-d6 as internal standard to each sample. Microsomal incubations were extracted with 3 ml ethyl ether twice, dried down under nitrogen gas and reconstituted in 125 μl 80:20 methanol:deionized H2O for analysis. 20-HETE formation was quantified using the validated UPLC-MS/MS assay described above and normalized by vehicle group. HET0016 (250 nM) was used as positive control. Incubates without NADPH group served as the negative control. IC50 was determined by fitting the dose-response curve using Graphpad Prism nonlinear regression.

[3] = target: T1, rCYP4F2 (Homo sapiens, UniProt P78329); assay: Inhibition of 20-HETE formation at 250 or 500 nM in rCYP4F2 incubations; type: biochemical; details: 500 nM compound; rCYP4F2 25 pmol/mL; read-out: rCYP4F2 % inh. @ 500 nM
T1 sequence (P78329 5-520): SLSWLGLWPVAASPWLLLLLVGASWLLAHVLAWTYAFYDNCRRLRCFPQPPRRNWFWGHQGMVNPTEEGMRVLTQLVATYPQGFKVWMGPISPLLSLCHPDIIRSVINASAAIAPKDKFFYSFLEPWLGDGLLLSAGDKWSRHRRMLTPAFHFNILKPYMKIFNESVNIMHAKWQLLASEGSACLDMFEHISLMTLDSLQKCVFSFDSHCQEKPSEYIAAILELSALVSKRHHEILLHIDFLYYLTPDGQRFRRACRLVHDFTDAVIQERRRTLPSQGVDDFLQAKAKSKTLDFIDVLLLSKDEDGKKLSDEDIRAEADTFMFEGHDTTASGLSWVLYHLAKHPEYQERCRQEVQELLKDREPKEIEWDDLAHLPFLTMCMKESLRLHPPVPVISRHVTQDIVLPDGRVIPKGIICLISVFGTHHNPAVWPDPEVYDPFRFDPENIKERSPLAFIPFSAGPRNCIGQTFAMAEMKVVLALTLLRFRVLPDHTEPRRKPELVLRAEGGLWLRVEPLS
Summary of the method: as §1

[4] = tested on: formation of EETs and DiHETs (epoxygenase activity) in HLM; assay: Selectivity: inhibition of EETs and DiHETs formation (epoxygenase activity) in HLM; type: biochemical, human; details: for IC50: sum of EETs and DiHETs
Description: Selectivity of compounds for inhibition of 20-HETE formation vs inhibition of formation of 8,9-, 11,12-, 14,15-EET and 5,6-, 8,9-, 11,12-, 14,15-DiHETs was assessed via the simultaneous monitor of formation of 20-HETE and those metabolites under the UPLC-MS/MS assay conditions described above using HLM incubations and the same 12 test compound concentrations (0.1 nM-[…]) used for the IC50 determination experiments. At each of the 12 concentrations, the selectivity of 20-HETE inhibition over the other metabolites was compared. Epoxygenase activity was assessed by the sum of EETs and DiHETEs as percentage of control.

[5] = tested on: 20-HETE formation (CYP4) in RKM; assay: Inhibition of 20-HETE formation at 250 or 500 nM in RKM microsomal incubations; type: biochemical, rat; details: 500 nM compound; RKM 300 μg/ml
Summary of the method: as §1

[6] = tested on: 20-HETE formation (CYP4) in RLM; assay: Inhibition of 20-HETE formation at 250 or 500 nM in RLM microsomal incubations; type: biochemical, rat; details: 500 nM compound; RLM 300 μg/ml
Summary of the method: as §1

[7] = Turbidometric solubility determination; type: physicochemical; details: PBS with 1% DMSO, aqueous buffer, kinetic from dmso stock, room temperature
Summary of the method: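 Precipitation was detected as a significant rise in absorbance at 620 nm over background, and this point set the maximum solubility. Compound was tested in PBS with 1% DMSO at final concentrations from 0 to 600 μM, in triplicate, after 2 h of shaking at room temperature.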

[8] = HLM stability determination; type: in vitro ADME, human; details: HLM 500 μg/ml, 1 μM compound, NADPH, relative to 0 min
Description: HLM stability determinations shown in Table 3 were obtained as follows. Microsomal incubates contained HLM (500 μg/ml), test compounds (1 μM) and NADPH (1.3 mM) in a 1 ml total volume of microsomal incubation buffer (0.12 M potassium phosphate buffer containing 5 mM magnesium chloride). Reaction was started by adding NADPH to the incubates and was carried out at 37° C. in a shaking water bath for 60 min. At 0, 15, 30, 45, 60 min, a 50 μl aliquot of incubates was taken out and reaction was stopped by adding aliquot into 200 μl ice-cold acetonitrile. After centrifugation at 14000×g for 5 min, 200 μl supernatant was taken out for UPLC-MS/MS analysis as described above. Values at 0 min were used as corresponding control for test compounds. Varapamil, metoprolol, and warfarin, categorized as fast, moderate and slow metabolism, were used as positive control. Incubates without NADPH group served as negative control.

[9] = tested on: 20-HETE formation (CYP4) in RLM; assay: IC50 determination, 20-HETE formation in RLM; type: biochemical, rat; details: RLM 300 μg/ml, AA 100 μM, 12 concentrations
Description: as §2

Compound	HLM % inh. @ 500 nM [1] [%]	IC50 [2] [µM]	inhibition at 0.5 µM [3] [%]	EETs Inhibition, % @ 50,000 ([4]; at 50,000 (nM per column head))	RKM % inh. @ 500 nM [5] [%]	RLM % inh. @ 500 nM [6] [%]	solubility at 2 h ([7]; OD620, read-out: Max Solub) [µM]	solubility at 2 h ([7]; read-out: Solubility_ug/mL) [µg/mL]	Stability HLM % @ 30 min [8] [%]	IC50 [9] [nM]	IC50 [4] [µM]
COc1cccc(C2CCN(c3ccn[nH]3)CC2)c1 [Compound 7, 4-(3-Methoxyphenyl)-1-(1H-pyrazol-5-yl)piperidine]	51.70	0.19	6.5	2.6% @ 50,000	0.00	42.30	494	127			
COc1cccc(C2CCN(c3cn[nH]c3)CC2)c1 [Compound 8, 4-(3-Methoxyphenyl)-1-(1H-pyrazol-4-yl)piperidine]	62.70	0.17	48.9		0.00	45.50	111	29			> 50
c1ccc(CC2CCN(c3ccn[nH]3)CC2)cc1 [Compound 2, 4-Benzyl-1-(1H-pyrazol-5-yl)piperidine]	59.90	0.15	47.6		0.00	0.00			61		> 50

Second part, the compound after the results:

HLM % inh. @ 500 nM [1] [%]	IC50 [2] [µM]	inhibition at 0.5 µM [3] [%]	EETs Inhibition, % @ 50,000 ([4]; at 50,000 (nM per column head))	RKM % inh. @ 500 nM [5] [%]	RLM % inh. @ 500 nM [6] [%]	solubility at 2 h ([7]; OD620, read-out: Max Solub) [µM]	solubility at 2 h ([7]; read-out: Solubility_ug/mL) [µg/mL]	Stability HLM % @ 30 min [8] [%]	IC50 [9] [nM]	IC50 [4] [µM]	Compound
85.00	0.05	86		21.00	42.00			100	340		COc1ccc(C2CCN(c3cn[nH]c3)CC2)cc1F [Compound 44, 4-(3-Fluoro-4-methoxyphenyl)-1-(1H-pyrazol-4-yl)piperidine]
86.00	0.05	95		40.00	37.00	482	137	0			CC(=O)Nc1ccc(C2CCN(c3cn[nH]c3)CC2)cc1 [Compound 30, N-(4-(1-(1H-Pyrazol-4-yl)piperidin-4-yl)phenyl)acetamide]
